ChEMBL document CHEMBL3430912, “GSK Tres Cantos Anti-Kinetoplastid Screening (TCAKS) Data”

Key:
Leishmania donovani [1] = assay: GSK_TCAKS: pIC50 Leishmania donovani viability assay using fluorescence intensity. Assay plates (1536-well) were prepared by adding 30nL per well of compound. For single shot assay, the final compound concentration was 5uM. […] Briefly, eGFP LdBOB axenic amastigotes were harvested, fixed and counted in a CASY cell counter (Roche-Applied Science). A final concentration of 1.5 * 10^5 cells per well were prepared in amastigote media containing 500 U/mL penicillin/streptomycin (Invitrogen) and 6uL was dispensed to each experimental well using a Multidrop Combi dispenser (Thermo Scientific). 6uL of assay media was dispensed to control columns used as reference for 100% compound response. Following incubation for 72 h at 37C, 5% CO2, 2 uL of resazurin was added to each well at a final concentration of 0.5 mM in phosphate buffered saline (PBS) with IGEPAL (Sigma-Aldrich), 0.05% (v/v).; assay type: functional, organism-based
Leishmania donovani [2] = assay: (§1) GSK_TCAKS: pIC50 Leishmania donovani Imaging: Amastigotes/Macrophages. Assay plates (384-well) were prepared by adding 250nL of compound to each well. For single shot assay, the final compound concentration was 5 uM. […] Automated image analysis was performed with a script developed on Acapella High Content Imaging and Analysis Software (PerkinElmer). Output: Average number of amastigotes per macrophage cell were reported for each well.; assay type: functional, organism-based, Homo sapiens; details: THP-1
[3] = tested on: Trypanosoma brucei brucei; assay: GSK_TCAKS: pIC50 Trypanosoma brucei viability assay using fluorescence intensity. Assay plates (1536-well) were prepared by dispensing 25nL of compound solution per well using an Echo acoustic dispenser (Labcyte).; assay type: functional, organism-based; details: Lister 427, 2 h
[4] = biological target: Sterol 14-alpha demethylase (Trypanosoma cruzi (strain CL Brener), UniProt Q7Z1V1); assay: GSK_TCAKS: pIC50 CYP51 from Trypanosoma cruzi.; assay type: functional
Trypanosoma cruzi [5] = assay: GSK_TCAKS: pIC50 Trypanosoma cruzi viability assay using beta-GAL activity. This assay was run at single shot at 5uM compound concentration per well. The biological reagents consisted of NIH-3T3 host cells and trypomastigotes parasitic cells; both cell types were set to a 3.3 * 10^5 cells/mL dilution in assay DMEM by means of a CASY cell counter device using a 60um capillary. 6 uL of the mixture were dispensed per well (about 1 * 10^3 host-cells and 1 * 10^3 parasites) with a Multidrop Combi dispenser. […] In all wells, the percentage of DMSO never exceeded 0.5%. Plates incubated for four days at 37C, 5% CO2. The substrate used for the assay fluorescence intensity (FLINT) readout was resorufin-beta-D-galactopiranoside (Sigma-Aldrich) at 5uM per well. It was diluted in PBS supplemented with the soft detergent Igepal (Fluka).; assay type: functional, organism-based, Mus musculus; details: Tulahuen, NIH3T3
Trypanosoma cruzi [6] = assay: (§2) GSK_TCAKS: pIC50 H2C9 Imaging: H9c2 Host Cardiomyocytes. […] Cells were then washed once with PBS before infection. T. cruzi trypomastigotes, collected at days 5 to 8 after infection from LLC-MK2 parasite infected cultures, were allowed to swim out for 4h at 37C from a centrifuged pellet (2,500 rpm/10 min/room temperature). Trypomastigotes were then collected and counted in a CASY Cell Counter. Trypomastigotes, in supplemented DMEM, were added to H9c2 cultures in a multiplicity of infection of 1 and incubated for 18 h. Cells were washed once with PBS before incubation of the infected H9c2 monolayer with trypsin (Life-Technologies) to detach cells from the flask. Cells were counted in a CASY Cell Counter using a 150 um capillary and their density set at 5 * 10^4 cells per mL in supplemented assay DMEM. Infected H9c2 were dispensed into 384-well poly-lysine coated assay plates at 50uL per well using a Multidrop Combi dispenser. After seeding them, the plates were incubated at 37C, 5% CO2 for 72h. Cultures were then fixed and stained by addition of 50 uL of a solution containing 8% formaldehyde and 4 uM DRAQ5 DNA dye (BioStatus, UK) per well. […] Five images were collected per well for reliable statistical analysis. Automated image analysis was performed with a script developed on Acapella High Content Imaging and Analysis Software (PerkinElmer). Output: Number of H9c2 Host Cardiomyocytes nuclei to determine drug-related cytotoxicity.; assay type: functional, organism-based, Rattus norvegicus; details: H9c2, 4 h
Leishmania donovani [7] = assay: as §1, with “THP-1 Host Macrophages.” for “Amastigotes/Macrophages.”, “THP-1” for “Average number of amastigotes per macrophage”, “cell count” for “cell”; assay type: functional, organism-based, Homo sapiens
[8] = GSK_TCAKS: pIC50 HepG2 human cell line viability assay using luminiscence. […] Seeding density was checked to ensure that new mono-layers were not more than 50% confluent at the time of harvesting. Cell suspension was added to 500 mL of the same medium at a final density of 1.2 * 10^5 cells/mL. This cell suspension was dispensed (25 uL, 3000 cells per well) into 384-well clear-bottom plates using a Multidrop Combi dispenser. Prior to addition of the cell suspension, the screening compounds (250 nL) were pre-dispensed into the plates with an Echo liquid handler. Plates were incubated for 48 h at 37C, 5% CO2. After incubation, plates equilibrated at room temperature for 30 min before proceeding to develop the luminescent signal. The signal developer, CellTiter-Glo Reagent, was allowed to equilibrate at room temperature for 30 min and added to the plates (25uL per well) using a Multidrop Combi dispenser. Plates were left for 10 min at room temperature for stabilization and then read using a ViewLux.; assay type: toxicity, cell-based
Trypanosoma cruzi [9] = assay: as §2, with “Trypanosoma cruzi” for “H2C9”, “Amastigotes/Cell.” for “H9c2 Host Cardiomyocytes.”, “number” for “Number”, “amastigotes per cell as infection level measurement.” for “H9c2 Host Cardiomyocytes nuclei to determine drug-related cytotoxicity.”; assay type: functional, organism-based, Rattus norvegicus; details: H9c2, 4 h
NIH3T3 = assay: GSK_TCAKS: pIC50 NIH 3T3 cell line viability assay using luminiscence. Tissue culture surface treated assay plates (1536-well) were used. […] The 100% cells survival control was determined exposing the host-cells to a 0.5% DMSO concentration, whereas the 100% toxicity control was achieved by seeding the cells in presence of Amphotericin B at 50uM. Plates were incubated for four days at 37C, 5% CO2. The assay readout was developed by addition of 5uL of CellTiter-Glo Reagent following the manufacturer's instructions. Luminiscence was measured using a ViewLux.; assay type: functional, cell-based; details: Mus musculus, NIH3T3, 96 h
[10] = tested on: Trypanosoma brucei brucei; assay: GSK_TCAKS: pIC50 Trypanosoma brucei viability assay using luminiscence. Assay plates (1536-well) were prepared. T. brucei cultures were harvested and counted in a CASY cell counter. A parasite suspension was prepared at a final concentration of 5 * 10^4 cells/mL in complete HMI9 medium and 6uL was dispensed to all wells containing compounds using a Multidrop Combi dispenser. 6uL of HMI9 media with 0.4% DMSO were dispensed to control columns. Plates were incubated for 24 h at 37C, 5% CO2 then tempered for 10 min at room temperature. ATP content was quantified by adding 4 uL of CellTiter-Glo Reagent (Promega) according to the manufacturer's instructions. Luminescence was measured using a ViewLux.; assay type: functional, organism-based; details: Lister 427, CASY
Trypanosoma cruzi [11] = assay: as §2, with “Trypanosoma cruzi” for “H2C9”, “Infected Cells.” for “H9c2 Host Cardiomyocytes.”, “percentage” for “Number”, “infected cells per well as a second infection marker.” for “H9c2 Host Cardiomyocytes nuclei to determine drug-related cytotoxicity.”; assay type: functional, organism-based, Rattus norvegicus; details: H9c2, 4 h
Leishmania donovani [12] = assay: as §1, with “Infected Macrophages.” for “Amastigotes/Macrophages.”, “Percent” for “Average number”, “infected” for “amastigotes per”, “cells” for “cell”; assay type: functional, organism-based, Homo sapiens; details: THP-1

Sterol 14-alpha demethylase, sequence (Q7Z1V1 whole entry): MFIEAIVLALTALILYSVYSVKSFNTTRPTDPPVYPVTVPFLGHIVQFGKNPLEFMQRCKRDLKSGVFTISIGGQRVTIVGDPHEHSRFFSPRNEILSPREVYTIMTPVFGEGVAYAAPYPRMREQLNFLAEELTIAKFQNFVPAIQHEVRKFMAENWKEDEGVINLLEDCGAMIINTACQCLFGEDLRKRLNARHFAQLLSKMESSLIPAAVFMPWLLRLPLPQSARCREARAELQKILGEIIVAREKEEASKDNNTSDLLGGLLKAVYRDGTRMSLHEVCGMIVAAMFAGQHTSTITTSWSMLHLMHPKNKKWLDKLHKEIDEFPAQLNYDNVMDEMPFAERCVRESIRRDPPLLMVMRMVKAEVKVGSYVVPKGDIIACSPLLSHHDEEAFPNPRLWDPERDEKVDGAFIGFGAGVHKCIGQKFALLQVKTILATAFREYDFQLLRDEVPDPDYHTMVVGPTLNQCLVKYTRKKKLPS

| SMILES | IC50 (Leishmania donovani [1]) | IC50 (Leishmania donovani [2]) | IC50 [3] | IC50 [4] | IC50 (Trypanosoma cruzi [5]) | IC50 (Trypanosoma cruzi [6]) | IC50 (Leishmania donovani [7]) | IC50 at 48 h [8] | IC50 (Trypanosoma cruzi [9]) | IC50 (NIH3T3) | IC50 [10] | IC50 (Trypanosoma cruzi [11]) | IC50 (Leishmania donovani [12]) |
| --- | --- | --- | --- | --- | --- | --- | --- | --- | --- | --- | --- | --- | --- |
| C=CCOCC1Cn2nc([N+](=O)[O-])nc2O1 (stereo not given) | > 50.1 µM | > 50.1 µM | > 39.8 µM | > 100 µM | 0.501 µM | > 50.1 µM | > 50.1 µM | > 100 µM | 0.631 µM | > 50.1 µM | > 39.8 µM | 1.26 µM | > 50.1 µM |
| Cc1ccc(NC(=O)c2ccc(Cl)c(NC(=O)c3ccc([N+](=O)[O-])cc3)c2)cc1 | > 50.1 µM | > 50.1 µM | 7.94 µM | > 100 µM | 0.631 µM | > 50.1 µM | > 50.1 µM | > 100 µM | 0.2 µM | 20 µM | 15.8 µM | 0.501 µM | > 50.1 µM |
| C=CCn1nc([N+](=O)[O-])nc1Oc1ccc(Cl)cc1Cl | > 50.1 µM | 39.8 µM | 20 µM | 20 µM | 0.251 µM | > 50.1 µM | 39.8 µM | > 100 µM | 0.126 µM | 50.1 µM | > 39.8 µM | 0.251 µM | > 50.1 µM |
| Cc1c(C#N)c([N+](=O)[O-])nn1Cc1cccc(Cl)c1Cl | > 50.1 µM | 15.8 µM | 15.8 µM | > 100 µM | 0.2 µM | > 50.1 µM | 15.8 µM | 79.4 µM | 0.0398 µM | 39.8 µM | 25.1 µM | 0.1 µM | > 50.1 µM |
| Cc1c(CNC(=O)c2ccc(Cn3cc(Cl)c([N+](=O)[O-])n3)cc2)cnn1C | > 50.1 µM | > 50.1 µM | 5.01 µM | > 100 µM | 1 µM | > 50.1 µM | > 50.1 µM | > 100 µM | 0.794 µM | > 50.1 µM | 10 µM | 1.58 µM | > 50.1 µM |
| Cc1c([N+](=O)[O-])c(C(=O)Nc2sc3c(c2C#N)CCC(C)C3)nn1C (stereo not given) | 25.1 µM | 15.8 µM | > 39.8 µM | > 100 µM | 2.51 µM | > 50.1 µM | > 50.1 µM | > 100 µM | 1.58 µM | 12.6 µM | > 39.8 µM | 2.51 µM | 31.6 µM |
| O=C(Nc1ccc(Br)cn1)c1ccc(Cn2cnc([N+](=O)[O-])n2)cc1 | > 50.1 µM | > 50.1 µM | 1.58 µM | > 100 µM | 0.158 µM | > 50.1 µM | > 50.1 µM | > 100 µM | 0.0794 µM | > 50.1 µM | 3.16 µM | 0.126 µM | > 50.1 µM |
| CC1=NN(C(=O)CCn2cnc([N+](=O)[O-])n2)C(O)(C(F)(F)F)C1 (stereo not given) | > 50.1 µM | > 50.1 µM | > 39.8 µM | > 100 µM | 2 µM | > 50.1 µM | > 50.1 µM | > 100 µM | 1.26 µM | > 50.1 µM | > 39.8 µM | 6.31 µM | > 50.1 µM |
| O=C(c1cc2cc(Cl)ccc2[nH]1)N1CCCCC1c1cccnc1 (stereo not given) | 50.1 µM | 10 µM | 25.1 µM | 0.0631 µM | 0.251 µM | 31.6 µM | 15.8 µM | 39.8 µM | 0.126 µM | 39.8 µM | 15.8 µM | 0.126 µM | 31.6 µM |
| O=S(=O)(c1ccccc1C(F)(F)F)N1CCN(Cc2ccc(-n3ccnc3)cc2)CC1 | 6.31 µM | 25.1 µM | > 39.8 µM | 0.1 µM | 0.251 µM | > 50.1 µM | 15.8 µM | > 100 µM | 0.2 µM | > 50.1 µM | > 39.8 µM | 0.251 µM | > 50.1 µM |
| CC1(Oc2cncc(Cl)c2)CCN(Cc2cc3ccccc3[nH]2)C1 (stereo not given) | > 50.1 µM | 31.6 µM | > 39.8 µM | 10 µM | 1 µM | 10 µM | 31.6 µM | 31.6 µM | 1 µM | 10 µM | > 39.8 µM | 1.58 µM | 20 µM |
| COc1ccc(NS(=O)(=O)c2cc(NC(=O)c3ccc([N+](=O)[O-])s3)ccc2OC)cc1 | 0.501 µM | 0.794 µM | 0.0501 µM | 1 µM | 0.0708 µM | > 50.1 µM | 12.6 µM | > 100 µM | 0.0794 µM | > 50.1 µM | 0.126 µM | 0.1 µM | 0.794 µM |
| CC(=O)Nc1ccc(-c2csc(NC(=O)c3ccc([N+](=O)[O-])s3)n2)cc1 | 0.398 µM | 0.794 µM | 0.0251 µM | 6.31 µM | 0.126 µM | 5.01 µM | 12.6 µM | 50.1 µM | 0.1 µM | 6.31 µM | 0.158 µM | 0.126 µM | 1 µM |
| N#Cc1cccc(CN2CCC(N(Cc3cccnc3)C(=O)c3cc(F)c(F)cc3F)CC2)c1 | > 50.1 µM | 12.6 µM | > 39.8 µM | 0.0501 µM | 0.398 µM | > 50.1 µM | > 50.1 µM | > 100 µM | 0.316 µM | 20 µM | > 39.8 µM | 0.398 µM | > 50.1 µM |
| N#Cc1cccc(CN2CCC(c3nc(-c4ccc(C(F)(F)F)nc4)no3)CC2)c1 | 12.6 µM | > 50.1 µM | > 39.8 µM | > 100 µM | 2 µM | > 50.1 µM | > 50.1 µM | > 100 µM | 2.51 µM | > 50.1 µM | > 39.8 µM | 2 µM | > 50.1 µM |
